Measurements: patent US10071163B2, “Compositions and methods for selective delivery of oligonucleotide molecules to specific neuron types” (nLife Therapeutics, S.L., priority 2010, dated 2018)

Legend:
5-HTT mRNA = assay: In situ hybridization of 5-HTT mRNA after intranasal 5-HTT-NLF-siRNA; assay type: in vivo, mice (C57BL/6J)
Description: Twenty-four h after treatment, mice were killed by decapitation and the brains rapidly removed, frozen on dry ice and stored at −20° C. Tissue sections, 14 μm thick, were cut using a microtome-cryostat, thaw-mounted onto APTS (3-aminopropyltriethoxysilane) coated slides and kept at −20° C. until use.
To determine 5-HTT mRNA expression level, in situ hybridization assays were performed using an oligodeoxyribonucleotide probe specific for 5-HIT, complementary to bases 820-863 (Mouse, GenBank Accession Number: NM_010484). The 5-HTT oligonucleotide was individually labeled (2 pmol) at its 3′-end with [^33P]-dATP (>2500 Ci/mmol) using terminal deoxynucleotidyltransferase, purified by centrifugation using QIAquick Nucleotide Removal Kit. The protocols for single label in situ hybridization were based on previously described procedures. Briefly, frozen tissue sections, as described in example 2, were first brought to room temperature, fixed for 20 min at 4° C. in 4% paraformaldehyde in phosphate buffered saline (1×PBS: 8 mM Na2HPO4, 1.4 mM KH2PO4, 136 mM NaCl, 2.6 mM KCl), washed for 5 min in 3×PBS at room temperature, twice for 5 min each in 1×PBS and incubated for 2 min at 21° C. in a solution of pre-digested pronase at a final concentration of 24 U/ml in 50 mM Tris-HCl pH 7.5, 5 mM EDTA. The enzymatic activity was stopped by immersion for 30 s in 2 mg/ml glycine in 1×PBS. […]

[1] = test system: serotonin transporter (5-HTT); assay: [3H]citalopram autoradiographic binding of serotonin transporter after intranasal 5-HTT-NLF-siRNA; assay type: in vivo, mice; settings: vs vehicle or NLF-nonsense-siRNA, FIG. 15B-C
From the text: 24-48. h after NLF-siRNA intranasal administration, mice were killed and their brains were removed and serial coronal sections of 14 μm thickness were obtained at the following AP coordinates, in mm, relative to bregma (Franklin and Paxinos, 1997): 2.2 (prefrontal cortex-PFC), 1.1 to 0.6 (caudate putamen—CPu, lateral and medial septal nucleus—Sep, ventral pallidum—VP), −1.5 to −1.8 (hippocampus—HPC, hypothalamus—Hip) and −4.24 to −4.96 (dorsal raphe nucleus—DR and median raphe nucleus—MnR). Briefly, frozen tissue sections were thawed and dried, preincubated in 50 mM Tris-HCl buffer (pH 7.4 at 25° C.) containing 120 mM NaCl and 5 mM KCl for 15 mm at room temperature. […] After incubation and washing, tissue sections were dipped in distilled ice-cold water and dried rapidly under a cold air stream. Tissues were exposed to tritium-sensitive film together with plastic ^3H-standards for 40 days at 4° C. Quantitative analysis of the autoradiograms was done with AIS computerized image analysis system. By using tissue-calibrated data from the co-exposed radioactive standards, OD values of autoradiograms were transformed to levels of radioactivity bound (nCi/mg tissue protein) to specific brain regions in tissue sections.

Substance: 5-HTT-NLF-siRNA: 5-HTT-targeted siRNA (SEQ ID NO 14/15) conjugated to a group of formula (I) and one targeting agent (sertraline) (chain 1 GCUAGCUACAACAAGUUCATT; chain 2 UGAACUUGUUGUAGCUAGCTT; further chemistry not given here)
- 5-HTT mRNA level in dorsal (DR) and median (MnR) raphe nuclei (5-HTT mRNA; intranasal 10 and 30 μg, vs vehicle and nonsense-NLF-siRNA, FIG. 15A): reduction of 5-HTT mRNA level
- knockdown of 5-HTT mRNA in dorsal raphe nuclei (5-HTT mRNA; intranasal, both doses (10 and 30 μg/mice), three antero-posterior coordinates, FIG. 14A): specific knowdown of 5-HTT mRNA
- serotonin transporter levels in the different brain areas [1]: reduction of the serotonin transporter levels
